What was measured:
[1] = target: T1, Non-receptor tyrosine-protein kinase TYK2 (Homo sapiens, UniProt P29597); assay: Inhibition of His-tagged TYK2 (unknown origin) after 3 hrs by Caliper assay
[2] = target: JAK3/JAK1 (Homo sapiens, UniProt P23458+P52333); assay: Inhibition of JAK1/JAK3 in human whole blood assessed as reduction in IL-2 induced IFN-gamma production after 18 hrs by ELISA; assay type: protein-complex assay
[3] = target: Mitogen-activated protein kinase kinase kinase kinase 2 (Homo sapiens) (UniProt Q12851); assay: Inhibition of human GCK (M1 to G318 residues) expressed in mammalian expression system assessed as residual activity at 50 nM by KINOMEscan assay relative to control
[4] = target: Rho-associated protein kinase 1 (Homo sapiens, UniProt Q13464); assay: Inhibition of human ROCK1 (M1 to R415 residues) expressed in mammalian expression system assessed as residual activity at 50 nM by KINOMEscan assay relative to control
[5] = target: STE20-like serine/threonine-protein kinase (Homo sapiens) (UniProt Q9H2G2); assay: Inhibition of wild-type human partial length SLK (S14 to A307 residues) expressed in bacterial expression system assessed as residual activity at 50 nM by Kinomescan method relative to control
[6] = target: Serine/threonine-protein kinase MRCK beta (Homo sapiens) (UniProt Q9Y5S2); assay: Inhibition of human MRCKB (L56 to S417 residues) expressed in bacterial expression system assessed as residual activity at 50 nM by KINOMEscan assay relative to control
[7] = target: Muscle, skeletal receptor tyrosine-protein kinase (Homo sapiens) (UniProt O15146); assay: Inhibition of wild-type human partial length MUSK (M553 to V869 residues) expressed in bacterial expression system assessed as residual activity at 50 nM by Kinomescan method relative to control
[8] = target: T1, Non-receptor tyrosine-protein kinase TYK2; assay: Inhibition of TYK2 (unknown origin) assessed as residual activity at 50 nM by KINOMEscan assay relative to control
[9] = target: Serine/threonine-protein kinase Sgk3 (Homo sapiens) (UniProt Q96BR1); assay: Inhibition of wild-type human partial length SGK3 (M119 to L496 residues) expressed in mammalian expression system assessed as residual activity at 50 nM by Kinomescan method relative to control
[10] = target: cAMP-dependent protein kinase catalytic subunit PRKX (Homo sapiens) (UniProt P51817); assay: Inhibition of wild-type human partial length PRKX (M1 to F358 residues) expressed in bacterial expression system assessed as residual activity at 50 nM by Kinomescan method relative to control
[11] = target: Mitogen-activated protein kinase kinase kinase 11 (Homo sapiens) (UniProt Q16584); assay: Inhibition of wild-type human partial length MLK3 (I77 to W399 residues) expressed in bacterial expression system assessed as residual activity at 50 nM by Kinomescan method relative to control
[12] = target: Glycogen synthase kinase-3 alpha (Homo sapiens) (UniProt P49840); assay: Inhibition of wild-type human full length GSK3A (M1 to S483 residues) expressed in bacterial expression system assessed as residual activity at 50 nM by Kinomescan method relative to control
[13] = system: Phosphatidylinositol 4,5-bisphosphate 3-kinase catalytic subunit alpha isoform (Homo sapiens), P42336 [H1047Y]; assay: Inhibition of human partial length PIK3CA H1047Y mutant (R108 to N1068 residues) expressed in mammalian expression system assessed as residual activity at 50 nM by Kinomescan method relative to control
[14] = target: Maternal embryonic leucine zipper kinase (Homo sapiens) (UniProt Q14680); assay: Inhibition of wild-type human full length MELK (M1 to V651 residues) expressed in bacterial expression system assessed as residual activity at 50 nM by Kinomescan method relative to control
[15] = target: Serine/threonine-protein kinase PAK 1 (Homo sapiens) (UniProt Q13153); assay: Inhibition of wild-type human partial length PAK1 (S149 to H545 residues) expressed in bacterial expression system assessed as residual activity at 50 nM by Kinomescan method relative to control
[16] = target: Tyrosine-protein kinase FRK (Homo sapiens) (UniProt P42685); assay: Inhibition of wild-type human partial length FRK (A215 to F503 residues) expressed in bacterial expression system assessed as residual activity at 50 nM by Kinomescan method relative to control
[17] = target: Serine/threonine-protein kinase 32A (Homo sapiens) (UniProt Q8WU08); assay: Inhibition of wild-type human full length STK32A (M1 to L396 residues) expressed in mammalian expression system assessed as residual activity at 50 nM by Kinomescan method relative to control
[18] = target: Cyclin-dependent kinase 9 (Homo sapiens) (UniProt P50750); assay: Inhibition of wild-type human full length CDK9 (M1 to F372 residues) expressed in bacterial expression system assessed as residual activity at 50 nM by Kinomescan method relative to control
[19] = target: Megakaryocyte-associated tyrosine-protein kinase (Homo sapiens) (UniProt P42679); assay: Inhibition of wild-type human full length CTK (M43 to P508 residues) expressed in mammalian expression system assessed as residual activity at 50 nM by Kinomescan method relative to control
[20] = target: Tyrosine-protein kinase ABL1 (Homo sapiens) (UniProt P00519); assay: Inhibition of wild-type human phosphorylated ABL1 (S229 to K512 residues) expressed in mammalian expression system assessed as residual activity at 50 nM by Kinomescan method relative to control
[21] = target: Cyclin-dependent kinase-like 3 (Homo sapiens) (UniProt Q8IVW4); assay: Inhibition of wild-type human partial length CDKL3 (M1 to D327 residues) expressed in bacterial expression system assessed as residual activity at 50 nM by Kinomescan method relative to control
[22] = target: Discoidin domain-containing receptor 2 (Homo sapiens) (UniProt Q16832); assay: Inhibition of wild-type human partial length DDR2 (V555 to E855 residues) expressed in mammalian expression system assessed as residual activity at 50 nM by Kinomescan method relative to control
[23] = target: Homeodomain-interacting protein kinase 4 (Homo sapiens) (UniProt Q8NE63); assay: Inhibition of wild-type human partial length HIPK4 (M1 to V384 residues) expressed in bacterial expression system assessed as residual activity at 50 nM by Kinomescan method relative to control
[24] = target: Leukocyte tyrosine kinase receptor (Homo sapiens) (UniProt P29376); assay: Inhibition of wild-type human partial length LTK (P422 to S744 residues) expressed in bacterial expression system assessed as residual activity at 50 nM by Kinomescan method relative to control
[25] = target: Serine/threonine-protein kinase OSR1 (Homo sapiens) (UniProt O95747); assay: Inhibition of wild-type human full length OSR1 (M1 to S527 residues) expressed in mammalian expression system assessed as residual activity at 50 nM by Kinomescan method relative to control
[26] = target: Phosphatidylinositol 3-kinase C2 domain-containing subunit gamma (Homo sapiens) (UniProt O75747); assay: Inhibition of wild-type human partial length PI3KC2G (M1 to I1446 residues) expressed in mammalian expression system assessed as residual activity at 50 nM by Kinomescan method relative to control
Chain of Phosphatidylinositol 3-kinase C2 domain-containing subunit gamma (Homo sapiens) (O75747 whole entry, the tested form may be a part): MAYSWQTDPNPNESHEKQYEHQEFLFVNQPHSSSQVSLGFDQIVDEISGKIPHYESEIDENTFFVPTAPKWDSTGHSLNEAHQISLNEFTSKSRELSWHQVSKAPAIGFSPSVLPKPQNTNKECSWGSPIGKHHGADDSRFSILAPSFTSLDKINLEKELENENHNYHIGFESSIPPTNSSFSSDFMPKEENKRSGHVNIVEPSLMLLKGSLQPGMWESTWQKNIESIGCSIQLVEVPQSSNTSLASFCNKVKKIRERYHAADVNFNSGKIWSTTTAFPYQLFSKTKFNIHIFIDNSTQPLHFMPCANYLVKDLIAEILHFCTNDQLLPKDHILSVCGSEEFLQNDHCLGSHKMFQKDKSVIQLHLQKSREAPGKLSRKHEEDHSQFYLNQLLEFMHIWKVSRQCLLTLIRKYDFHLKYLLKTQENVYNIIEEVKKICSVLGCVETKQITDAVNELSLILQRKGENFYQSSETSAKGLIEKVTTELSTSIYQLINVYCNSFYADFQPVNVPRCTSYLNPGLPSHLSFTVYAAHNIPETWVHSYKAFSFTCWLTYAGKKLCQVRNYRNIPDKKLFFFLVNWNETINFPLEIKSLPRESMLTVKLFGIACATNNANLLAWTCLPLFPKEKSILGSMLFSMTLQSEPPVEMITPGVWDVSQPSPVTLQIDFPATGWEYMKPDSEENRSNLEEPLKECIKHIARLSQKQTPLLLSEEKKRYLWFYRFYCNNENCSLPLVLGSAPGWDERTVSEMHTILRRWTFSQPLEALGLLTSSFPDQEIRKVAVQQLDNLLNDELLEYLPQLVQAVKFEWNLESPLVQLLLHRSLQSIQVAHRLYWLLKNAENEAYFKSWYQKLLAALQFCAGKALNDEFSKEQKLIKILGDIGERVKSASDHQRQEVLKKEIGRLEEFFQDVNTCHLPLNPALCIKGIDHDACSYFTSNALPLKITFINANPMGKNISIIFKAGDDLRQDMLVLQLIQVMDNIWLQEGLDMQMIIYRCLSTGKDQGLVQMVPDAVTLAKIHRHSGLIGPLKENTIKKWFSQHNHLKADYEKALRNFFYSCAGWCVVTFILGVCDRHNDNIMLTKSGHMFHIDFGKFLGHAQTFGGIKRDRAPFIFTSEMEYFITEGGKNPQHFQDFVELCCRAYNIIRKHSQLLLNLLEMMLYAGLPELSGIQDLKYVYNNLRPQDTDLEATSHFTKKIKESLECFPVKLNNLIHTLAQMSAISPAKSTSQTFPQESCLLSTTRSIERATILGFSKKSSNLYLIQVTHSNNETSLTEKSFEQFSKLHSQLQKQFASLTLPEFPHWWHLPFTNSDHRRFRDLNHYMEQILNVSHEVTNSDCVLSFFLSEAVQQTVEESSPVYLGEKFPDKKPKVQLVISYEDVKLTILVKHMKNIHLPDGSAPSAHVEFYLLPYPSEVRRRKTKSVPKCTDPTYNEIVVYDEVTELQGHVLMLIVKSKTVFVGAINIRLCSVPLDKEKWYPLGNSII

T1 sequence (P29597 whole entry): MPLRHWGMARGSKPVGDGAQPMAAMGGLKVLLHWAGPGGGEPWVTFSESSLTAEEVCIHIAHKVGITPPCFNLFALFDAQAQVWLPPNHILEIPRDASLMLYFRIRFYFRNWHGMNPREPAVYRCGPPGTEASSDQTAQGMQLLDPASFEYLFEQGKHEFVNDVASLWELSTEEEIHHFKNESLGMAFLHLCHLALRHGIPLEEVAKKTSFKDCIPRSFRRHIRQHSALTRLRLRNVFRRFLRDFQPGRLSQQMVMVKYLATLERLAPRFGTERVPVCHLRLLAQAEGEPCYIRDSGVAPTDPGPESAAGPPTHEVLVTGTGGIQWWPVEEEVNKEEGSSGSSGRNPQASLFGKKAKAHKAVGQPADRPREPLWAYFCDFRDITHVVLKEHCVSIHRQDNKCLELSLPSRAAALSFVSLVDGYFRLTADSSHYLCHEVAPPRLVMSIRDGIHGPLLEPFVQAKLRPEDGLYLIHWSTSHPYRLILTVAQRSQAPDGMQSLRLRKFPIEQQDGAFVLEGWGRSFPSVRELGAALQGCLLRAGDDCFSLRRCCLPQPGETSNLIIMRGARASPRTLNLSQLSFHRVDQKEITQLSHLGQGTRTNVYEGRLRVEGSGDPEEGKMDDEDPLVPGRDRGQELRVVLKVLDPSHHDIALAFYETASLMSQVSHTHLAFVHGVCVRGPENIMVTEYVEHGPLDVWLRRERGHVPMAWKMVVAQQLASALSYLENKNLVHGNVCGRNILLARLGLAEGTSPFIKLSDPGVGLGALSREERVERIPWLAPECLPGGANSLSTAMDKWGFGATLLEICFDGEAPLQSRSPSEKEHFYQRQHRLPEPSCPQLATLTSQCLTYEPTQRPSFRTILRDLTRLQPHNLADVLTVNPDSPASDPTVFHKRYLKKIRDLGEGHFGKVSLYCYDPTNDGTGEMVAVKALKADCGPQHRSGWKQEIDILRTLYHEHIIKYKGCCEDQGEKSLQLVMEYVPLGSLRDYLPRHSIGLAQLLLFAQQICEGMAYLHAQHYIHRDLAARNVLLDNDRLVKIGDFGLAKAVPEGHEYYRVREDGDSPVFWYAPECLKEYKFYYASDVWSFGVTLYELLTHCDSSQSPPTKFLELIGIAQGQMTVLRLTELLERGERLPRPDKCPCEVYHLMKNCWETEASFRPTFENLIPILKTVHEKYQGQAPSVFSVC
Chain of Tyrosine-protein kinase FRK (Homo sapiens) (P42685 whole entry, the tested form may be a part): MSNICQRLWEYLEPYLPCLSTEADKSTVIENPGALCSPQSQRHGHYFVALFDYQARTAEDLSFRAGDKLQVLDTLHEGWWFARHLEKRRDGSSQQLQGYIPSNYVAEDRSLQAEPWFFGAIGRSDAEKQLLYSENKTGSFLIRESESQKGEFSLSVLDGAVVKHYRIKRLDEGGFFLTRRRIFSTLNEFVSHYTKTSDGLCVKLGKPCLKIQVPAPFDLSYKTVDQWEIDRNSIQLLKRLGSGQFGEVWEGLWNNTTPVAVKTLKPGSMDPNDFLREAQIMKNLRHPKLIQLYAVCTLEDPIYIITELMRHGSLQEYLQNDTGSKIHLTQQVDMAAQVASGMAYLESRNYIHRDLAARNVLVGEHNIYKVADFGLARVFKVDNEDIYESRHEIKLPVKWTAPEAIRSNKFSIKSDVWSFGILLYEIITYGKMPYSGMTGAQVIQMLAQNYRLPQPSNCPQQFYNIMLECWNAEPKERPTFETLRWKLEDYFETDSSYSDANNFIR
Chain of Megakaryocyte-associated tyrosine-protein kinase (Homo sapiens) (P42679 whole entry, the tested form may be a part): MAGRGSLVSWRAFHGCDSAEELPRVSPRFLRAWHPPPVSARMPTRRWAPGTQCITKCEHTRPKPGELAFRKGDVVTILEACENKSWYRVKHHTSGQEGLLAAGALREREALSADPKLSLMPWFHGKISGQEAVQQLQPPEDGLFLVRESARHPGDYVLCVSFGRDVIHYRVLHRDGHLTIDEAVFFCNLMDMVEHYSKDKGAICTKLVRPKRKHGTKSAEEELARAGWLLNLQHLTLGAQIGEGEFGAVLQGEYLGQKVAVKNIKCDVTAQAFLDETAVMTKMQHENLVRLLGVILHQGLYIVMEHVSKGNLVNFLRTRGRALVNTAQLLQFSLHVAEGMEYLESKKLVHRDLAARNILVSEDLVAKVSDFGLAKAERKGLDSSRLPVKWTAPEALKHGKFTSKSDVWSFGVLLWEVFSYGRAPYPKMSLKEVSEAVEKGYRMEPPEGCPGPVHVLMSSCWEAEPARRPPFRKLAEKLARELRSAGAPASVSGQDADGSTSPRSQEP
Chain of Maternal embryonic leucine zipper kinase (Homo sapiens) (Q14680 whole entry, looked up, the tested form may be a part): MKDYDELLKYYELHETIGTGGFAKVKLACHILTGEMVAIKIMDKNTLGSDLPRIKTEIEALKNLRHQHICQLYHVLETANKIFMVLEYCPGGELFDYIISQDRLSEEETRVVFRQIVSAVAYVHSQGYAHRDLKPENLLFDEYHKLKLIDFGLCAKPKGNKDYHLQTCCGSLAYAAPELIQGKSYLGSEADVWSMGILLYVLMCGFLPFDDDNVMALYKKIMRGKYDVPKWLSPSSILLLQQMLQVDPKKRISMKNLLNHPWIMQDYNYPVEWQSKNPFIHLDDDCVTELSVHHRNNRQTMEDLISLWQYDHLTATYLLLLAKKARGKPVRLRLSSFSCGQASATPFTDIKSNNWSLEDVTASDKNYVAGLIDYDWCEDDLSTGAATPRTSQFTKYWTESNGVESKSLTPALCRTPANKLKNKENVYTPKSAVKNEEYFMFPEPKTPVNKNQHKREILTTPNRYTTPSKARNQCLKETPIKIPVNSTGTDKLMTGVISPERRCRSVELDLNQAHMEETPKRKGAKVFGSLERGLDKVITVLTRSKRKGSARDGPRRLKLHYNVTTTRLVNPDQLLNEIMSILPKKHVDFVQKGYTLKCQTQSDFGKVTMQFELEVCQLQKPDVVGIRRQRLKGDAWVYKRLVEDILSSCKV
Chain of Glycogen synthase kinase-3 alpha (Homo sapiens) (P49840 2-483 limits assumed): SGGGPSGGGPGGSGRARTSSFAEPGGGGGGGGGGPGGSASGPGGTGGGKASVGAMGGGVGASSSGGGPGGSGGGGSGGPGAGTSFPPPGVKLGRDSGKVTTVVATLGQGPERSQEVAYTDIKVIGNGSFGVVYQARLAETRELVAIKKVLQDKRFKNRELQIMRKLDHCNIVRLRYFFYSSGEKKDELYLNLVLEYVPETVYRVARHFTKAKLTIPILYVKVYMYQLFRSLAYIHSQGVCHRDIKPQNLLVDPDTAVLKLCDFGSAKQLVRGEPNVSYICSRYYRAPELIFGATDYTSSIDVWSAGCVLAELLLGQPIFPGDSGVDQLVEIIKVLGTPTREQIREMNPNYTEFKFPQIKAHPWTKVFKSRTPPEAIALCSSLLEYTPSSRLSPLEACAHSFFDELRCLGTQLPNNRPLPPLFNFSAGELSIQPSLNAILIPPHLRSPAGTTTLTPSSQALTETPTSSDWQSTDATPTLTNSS

| SMILES | IC50 [1] | IC50 [2] | Activity [3] | Activity [4] | Activity [5] | Activity [6] | Activity [7] | Activity [8] | Activity [9] | Activity [10] | Activity [11] | Activity [12] | Activity [13] | Activity [14] | Activity [15] | Activity [16] | Activity [17] | Activity [18] | Activity [19] | Activity [20] | also measured |
| --- | --- | --- | --- | --- | --- | --- | --- | --- | --- | --- | --- | --- | --- | --- | --- | --- | --- | --- | --- | --- | --- |
| CC1(C)[C@H](Nc2c(C(N)=O)cnn3cc(-c4ccccc4)cc23)CC[C@]1(C)N | 7.5 nM | 200 nM | 3.6% | 5.3% | 18% | 29% | 43% | 50% | 56% | 59% | 64% | 65% | 66% | 79% | 88% | 89% | 92% | 93% | 95% | 100% | Activity [21]: 100%; Activity [22]: 100%; Activity [23]: 100%; Activity [24]: 100%; Activity [25]: 100%; Activity [26]: 100% |
| COc1ccc(-c2cc3c(N[C@@H]4CC[C@](C)(N)C4(C)C)c(C(N)=O)cnn3c2)cn1 | 25 nM | 100 nM | 26% | 36% | 94% | 82% | 90% | 50% | 84% | 100% | 100% | 100% | 100% | 79% | 96% | 100% | 100% | 100% | 85% | 74% | Activity [21]: 98%; Activity [22]: 100%; Activity [23]: 80%; Activity [24]: 100%; Activity [25]: 100%; Activity [26]: 100% |

— ChEMBL document CHEMBL4052645, “Discovery of potent and efficacious pyrrolopyridazines as dual JAK1/3 inhibitors” (Bioorg Med Chem Lett, 2017)
